# Measurements published in PMC2866097 (Meat science, 2010).
# B1: bovine slow myosin subfragment 1 (slow S1, masseter) (Bos taurus) (protein)
# chain: MVDAEMAAFGEAAPYLRKSEKERLEAQTRPFDLKKDVFVPDDKEEFVKATILSREGGKVTAETEHGKTVTVKEDQVLQQNPPKFDKIEDMAMLTFLHEPAVLYNLKERYASWMIYTYSGLFCVTINPYKWLPVYNAEVVAAYRGKKRSEAPPHIFSISDNAYQYMLTDRENQSILITGESGAGKTVNTKRVIQYFAVIAAIGDRSKKEQATGKGTLEDQIIQANPALEAFGNAKTVRNDNSSRFGKFIRIHFGATGKLASADIETYLLEKSRVIFQLKAERDYHIFYQILSNKKPELLDMLLITNNPYDYAFISQGETTVASIDDAEELMATDNAFDVLGFTTEEKNSMYKLTGAIMHFGNMKFKLKQREEQAEPDGTEEADKSAYLMGLNSADLLKGLCHPRVKVGNEYVTKGQNVQQVVYAKGALAKAVYERMFNWMVTRINATLETKQPRQYFIGVLDIAGFEIFDFNSFEQLCINFTNEKLQQFFNHHMFVLEQEEYKKEGIEWEFIDFGMDLQACIDLIEKPMGIMSILEEECMFPKATDMTFKAKLFDNHLGKSSNFQKPRNIKGKPEAHFSLIHYAGTVDYNIIGWLQKNKDPLNETVVDLYKKSSLKMLSSLFANYAGFDTPIEKGKGKAKKGSSFQTVSALHRENLNKLMTNLRSTHPHFVRCIIPNETKSPGVIDNPLVMHQLRCNGVLEGIRICRKGFPNRILYGDFRQRYRILNPAAIPEGQFIDSRKGAEKLLGSLDIDHNQYKFGHTKVFFKAGLLGLLEEMRDERLSRIITRIQAQSRGVLSRMEFKKLLERRDSLLIIQWNIRAFMGVKNWPWMKLYFKIKPLL
# Assays:
# [1] = tested on: bovine fast myosin subfragment 1 (fast S1, cutaneous trunci)
# [2] = target: bovine slow myosin subfragment 1 (slow S1, masseter) (Bos taurus, UniProt Q9BE39); experiment: biochemical
# Chain of bovine slow myosin subfragment 1 (slow S1, masseter) (P85100 2-199 partner, one chain of several): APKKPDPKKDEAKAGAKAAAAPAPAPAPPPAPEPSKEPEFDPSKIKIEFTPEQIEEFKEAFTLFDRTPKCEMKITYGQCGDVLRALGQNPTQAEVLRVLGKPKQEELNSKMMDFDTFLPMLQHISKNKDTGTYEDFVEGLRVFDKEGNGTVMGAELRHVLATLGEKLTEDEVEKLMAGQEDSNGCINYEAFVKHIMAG
# purified protein = substrate: O=P(O)(O)OP(=O)(O)OP(=O)(O)O; experiment: purified protein; settings: Mg2+
molecule,measurement,setting,value
"O=P(O)(O)OP(=O)(O)O [PPi, pyrophosphate]",Ki,[1],88 ± 6.9 µM
same,Ki,[2],18 ± 1.8 µM
B1,Km,purified protein,380 ± 130 µM
